Reference: patent US7662832B2, “Pyrrolo[2,3-c]pyridine derivatives and processes for the preparation thereof” (priority 2004, dated 2010)
Structures can show the parent of a compound that is named as a salt.

Assays:
[1] = molecular target: Proton Pump (H^+/K^+-ATPase) (Sus scrofa, UniProt P19156); assay: Inhibitory effects on proton pump (H^+/K^+-ATPase) activity; assay type: biochemical; details: hog gastric vesicles; K^+ stimulated H^+/K^+-ATPase activity; 30 minutes at 37° C.
[2] = test system: basal gastric acid secretion; assay: Inhibitory effects on basal gastric acid secretion in pylorus-ligated rats (Shay's rat model); assay type: in vivo, Sprague Dawley (SD) rats; details: oral, one hour before pylorus ligation, total acid output 5 hours after ligation
Experimental: Inhibitory effects of the compounds of the present invention on basal gastric acid secretion were performed according to Shay's rat model (Shay, H., et al., 1945, gastroenterology, 5, 43-61). Male Sprague Dawley (SD) rats (200±10 g body weight) were divided into […] (n=5) and fasted for 24 hours with free access to water. Control group was orally administered with 0.5% methylcellulose alone and the other groups were orally administered with test compounds suspended in 0.5% methylcellulose solution at doses of 1, 3 and 10 mg/kg/5 ml one hour before pylorus ligation.
Under ether anesthesia, the abdomens of the rats were incised and then the pylorus was ligated. 5 hours after ligation, the animals were sacrificed, and the gastric contents were collected. The collected contents were centrifuged at 1,000×g for 10 minutes to obtain the gastric juice. Total acid output was measured by 0.01N NaOH volume (ueq/ml) for automatic titration of the gastric juice to pH 7.0 and the ED50s of test compounds were calculated using the Litchfield-Wilcoxon method. % inhibitory activity was calculated from the following equation and the results are shown in Table 2. % inhibitory activity of test compound=(total acid output of control group−total acid output of the group treated with test compounds)/total acid output of control group×100

[3] = molecular target: T1, hog gastric H^+/K^+-ATPase (Sus scrofa, UniProt P19156); assay: Reversible inhibition of hog gastric H^+/K^+-ATPase (washout method); assay type: biochemical
T1 construct: from tissue; host or cells: hog gastric fundic mucosa; gastric vesicles (microsomes), lyophilized
Experimental: 3-1. Preparation of Gastric Vesicles
[…]. IX. Fraction and purification of K-ATPase-containing vesicles by zonal centrifugation and free-flow electrophoresis techinque. Biochem. Biophy. Acta. (BBA)-Biomembranes 465, 311-330, 1977). This matertal was lyophilized and stored at −70° C. The protein content of gastric vesicles was determined by the Bradford method using bovine serum albumin as a standard (Bradford M M, A rapid and sensitive method for the quantitation of microgram quantities of protein utilizing the principle of protein-dye binding. Anal Biochem. 72, 248-254, 1976).
3-2. Determination of Reversible Inhibition of Hog Gastric H^+/K^+-ATPase
Activity of H^+/K^+-ATPase in hog microsome (lyophilized vesicle) was measured by the inorganic phosphate released from ATP using an one-step calorimetric detection method at the concentration at which the test compounds have 50% inhibition of the proton pump (Chan K M, Delfert D, and Junger K D, A direct calorimetric assay for Ca^2+-stimulated ATPase activity. Anal Biochem, 157, 375-380, 1986). The mode of action of test compounds on H^+/K^+-ATPase was investigated according to the Washout method (Beil W, Staar U, and Sewing K F, Substituted thieno[3,4-d]imidazoles, a novel group of H^+/K+-ATPase inhibitors. Differentiation of their inhibition charactertstics from those of omeprazole. Eur. J. Pharmacol., 187, 455-67, 1990). […]

Chain of Proton Pump (H^+/K^+-ATPase) (P19156 2-1034 limits assumed): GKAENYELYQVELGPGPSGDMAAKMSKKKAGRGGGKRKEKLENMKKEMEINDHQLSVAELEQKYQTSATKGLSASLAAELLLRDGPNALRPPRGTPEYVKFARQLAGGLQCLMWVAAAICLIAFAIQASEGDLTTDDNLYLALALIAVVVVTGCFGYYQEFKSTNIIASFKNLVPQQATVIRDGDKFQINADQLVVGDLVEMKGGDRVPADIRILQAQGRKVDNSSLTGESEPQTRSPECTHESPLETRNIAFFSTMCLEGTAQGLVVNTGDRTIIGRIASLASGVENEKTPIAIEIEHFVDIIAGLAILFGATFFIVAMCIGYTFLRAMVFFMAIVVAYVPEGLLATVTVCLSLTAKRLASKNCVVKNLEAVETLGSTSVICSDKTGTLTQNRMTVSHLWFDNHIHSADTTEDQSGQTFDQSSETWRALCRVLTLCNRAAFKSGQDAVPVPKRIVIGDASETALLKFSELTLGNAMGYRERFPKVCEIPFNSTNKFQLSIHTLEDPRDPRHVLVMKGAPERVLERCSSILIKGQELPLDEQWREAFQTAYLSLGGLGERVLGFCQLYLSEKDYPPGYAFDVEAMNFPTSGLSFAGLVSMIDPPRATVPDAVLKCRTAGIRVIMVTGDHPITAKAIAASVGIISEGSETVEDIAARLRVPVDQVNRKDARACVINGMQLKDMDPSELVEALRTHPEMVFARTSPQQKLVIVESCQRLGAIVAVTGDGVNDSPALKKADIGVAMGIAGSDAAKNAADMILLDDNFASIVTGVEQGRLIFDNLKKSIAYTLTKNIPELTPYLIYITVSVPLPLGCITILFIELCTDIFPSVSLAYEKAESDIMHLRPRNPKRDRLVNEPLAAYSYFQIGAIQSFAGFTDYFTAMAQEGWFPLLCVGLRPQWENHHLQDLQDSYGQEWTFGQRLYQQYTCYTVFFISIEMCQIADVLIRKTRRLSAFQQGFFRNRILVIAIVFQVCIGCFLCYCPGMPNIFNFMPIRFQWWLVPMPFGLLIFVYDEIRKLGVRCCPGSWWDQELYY
Chain of Proton Pump (H^+/K^+-ATPase) (P18434 whole entry partner): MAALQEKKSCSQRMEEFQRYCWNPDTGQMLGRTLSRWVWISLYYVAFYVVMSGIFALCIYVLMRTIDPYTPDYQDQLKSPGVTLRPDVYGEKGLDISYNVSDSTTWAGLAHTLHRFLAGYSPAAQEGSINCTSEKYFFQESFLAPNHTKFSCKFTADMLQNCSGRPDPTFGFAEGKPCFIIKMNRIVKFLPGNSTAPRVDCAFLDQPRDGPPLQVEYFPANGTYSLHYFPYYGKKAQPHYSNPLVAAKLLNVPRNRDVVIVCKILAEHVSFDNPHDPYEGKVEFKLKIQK
T1 sequence (P19156 2-1034 limits assumed): as the sequence (P19156 2-1034 limits assumed) above
T1 sequence (P18434 whole entry partner): as the sequence (P18434 whole entry partner) above

Structure (SMILES) | IC50 [1] | inhibition of H^+/K^+-ATPase activity after washout ([3]; after washout, compared with non-treated group) | inhibition of H^+/K^+-ATPase activity before washout ([3]; before washout, test compound at the concentration of 50% inhibition of the proton pump) | ED50 [2]
C=CCn1c(C)c(C)c2ccnc(N3CCc4ccccc4C3)c21.Cl [Example 484, 1-allyl-7-(1,2,3,4-tetrahydroisoquinolin-2-yl)-2,3-dimethyl-1H-pyrrolo[2,3-c]pyridine hydrochloride] | 0.0037 µM | – | – | 1.4 mg/kg
COc1ccc(Cn2c(C)c(C)c3ccnc(N4CCc5ccccc5C4)c32)cc1.Cl [Example 482, 1-(4-methoxybenzyl)-7-(1,2,3,4-tetrahydroisoquinolin-2-yl)-2,3-dimethyl-1H-pyrrolo[2,3-c]pyridine hydrochloride] | 0.36 µM | – | – | 2.4 mg/kg
Cc1c(C)n(C)c2c(N3CCc4ccccc4C3)nccc12.Cl [Example 470, 7-(1,2,3,4-tetrahydroisoquinolin-2-yl)-1,2,3-trimethyl-1H-pyrrolo[2,3-c]pyridine hydrochloride] | 0.32 µM | – | – | 4.4 mg/kg
CCCn1c(C)c(C)c2ccnc(NCc3ccc(Cl)cc3)c21.Cl [Example 229, 7-(4-chlorobenzylamino)-2,3-dimethyl-1-propyl-1H-pyrrolo[2,3-c]pyridine hydrochloride] | 0.24 µM | – | – | 2.2 mg/kg
Cc1[nH]c2c(N3CCc4ccccc4C3)nccc2c1C.Cl [Example 468, 7-(1,2,3,4-tetrahydroisoquinolin-2-yl)-2,3-dimethyl-1H-pyrrolo[2,3-c]pyridine hydrochloride] | 0.19 µM | – | – | 5.2 mg/kg
Cc1ccc(Cn2c(C)c(C)c3ccnc(N4CCc5ccccc5C4)c32)cc1.Cl [Example 477, 1-(4-methylbenzyl)-7-(1,2,3,4-tetrahydroisoquinolin-2-yl)-2,3-dimethyl-1H-pyrrolo[2,3-c]pyridine hydrochloride] | 0.3 µM | – | – | 2 mg/kg
CCCn1c(C)c(C)c2ccnc(N3CCc4ccccc4C3)c21.Cl [Example 473, 1-propyl-7-(1,2,3,4-tetrahydroisoquinolin-2-yl)-2,3-dimethyl-1H-pyrrolo[2,3-c]pyridine hydrochloride] | 0.47 µM | – | – | 2.8 mg/kg
Cc1c(C)n(CC(C)C)c2c(NCc3ccc(F)cc3)nccc12.Cl [Example 208, 7-(4-fluorobenzylamino)-1-isobutyl-2,3-dimethyl-1H-pyrrolo[2,3-c]pyridine hydrochloride] | 0.094 µM | – | – | 1.3 mg/kg
Cc1c(C)n(Cc2ccccc2)c2c(N(C)Cc3ccc(F)cc3)nccc12 [Example 141, 1-benzyl-7-[N-(4-fluorobenzyl)-N-methyl]amino-2,3-dimethyl-1H-pyrrolo[2,3-c]pyridine hydrochloride] | 0.064 µM | – | – | 2.3 mg/kg
Cc1c(C)n(Cc2cccc(F)c2)c2c(N3CCc4ccccc4C3C)nccc12.Cl (centres unmarked) [Example 557, 2-[1-(3-fluorobenzyl)-2,3-dimethyl-1H-pyrrolo[2,3-c]pyridin-7-yl]-1-methyl-1,2,3,4-tetrahydroisoquinoline hydrochloride] | 0.146 µM | – | – | 4.1 mg/kg

More lines, main results first:

IC50 [1] | inhibition of H^+/K^+-ATPase activity after washout ([3]; after washout, compared with non-treated group) | inhibition of H^+/K^+-ATPase activity before washout ([3]; before washout, test compound at the concentration of 50% inhibition of the proton pump) | Structure (SMILES) | ED50 [2]
0.063 µM | – | – | Cc1[nH]c2c(-c3ccc4ccccc4c3)nccc2c1C.Cl [Example 402, 2,3-dimethyl-7-(naphthalen-2-yl)-1H-pyrrolo[2,3-c]pyridine hydrochloride] | 11.2 mg/kg
0.032 µM | did not inhibit | 50% | Cc1c(C)n(Cc2cccc(F)c2)c2c(N3CCc4ccccc4C3)nccc12.Cl [Example 480, 1-(3-fluorobenzyl)-7-(1,2,3,4-tetrahydroisoquinolin-2-yl)-2,3-dimethyl-1H-pyrrolo[2,3-c]pyridine hydrochloride] | 1.8 mg/kg
0.026 µM | – | – | C=CCn1c(C)c(C)c2ccnc(N3CCc4ccccc4C3C)c21.Cl (centres unmarked) [Example 553, 2-(1-allyl-2,3-dimethyl-1H-pyrrolo[2,3-c]pyridin-7-yl)-1-methyl-1,2,3,4-tetrahydroisoquinoline hydrochloride] | 2.1 mg/kg
0.054 µM | – | – | Cc1ccccc1CNc1nccc2c(C)c(C)n(CC(C)C)c12.Cl [Example 210, 1-isobutyl-2,3-dimethyl-7-(2-methylbenzylamino)-1H-pyrrolo[2,3-c]pyridine hydrochloride] | 1.9 mg/kg
0.049 µM | – | – | C=CCn1c(C)c(C)c2ccnc(N3CCc4cc(F)ccc4C3C)c21.Cl (centres unmarked) [Example 563, 2-(1-allyl-2,3-dimethyl-1H-pyrrolo[2,3-c]pyridin-7-yl)-6-fluoro-1-methyl-1,2,3,4-tetrahydroisoquinoline hydrochloride] | 3.5 mg/kg
